In the assay the target is T1, GLP-1 Receptor (Homo sapiens, UniProt P43220).
T1 construct: host or cells: HEK293/GLP1R/CRE-LUC (HEK293/CRE-Luc stably expressing the GLP-1 receptor)
T1 sequence (P43220 24-463, species assumed): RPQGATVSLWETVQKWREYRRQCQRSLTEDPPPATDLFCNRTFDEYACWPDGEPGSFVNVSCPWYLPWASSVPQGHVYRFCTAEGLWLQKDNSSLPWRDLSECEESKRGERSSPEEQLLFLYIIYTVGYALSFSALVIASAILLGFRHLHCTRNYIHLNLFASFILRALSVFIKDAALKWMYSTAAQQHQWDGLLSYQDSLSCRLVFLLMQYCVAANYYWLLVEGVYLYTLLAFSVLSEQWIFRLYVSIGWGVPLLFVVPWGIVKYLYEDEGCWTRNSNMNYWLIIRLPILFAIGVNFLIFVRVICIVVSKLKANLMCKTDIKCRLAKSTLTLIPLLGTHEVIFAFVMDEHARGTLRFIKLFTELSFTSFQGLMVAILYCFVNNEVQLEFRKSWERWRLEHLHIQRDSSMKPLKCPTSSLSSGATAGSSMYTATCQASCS
Put plainly: GLP-1R agonist cAMP stimulation assay (HEK293/GLP1R/CRE-LUC cells, Cisbio cAMP dynamic 2 kit).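 Further: compounds tested in half-log serial dilution, cAMP detected with cAMP-d2 and anti-cAMP cryptate antibody reagents after 1 h at room temperature.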 Type of assay: cell-based. The conditions noted are these: HEK293/CRE-Luc cell line stably expressing the GLP-1 Receptor; 1000 cells/well; 30 min at 37° C.; 0.5 mM IBMX, 0.1% BSA; read-out: GLP1R cAMP Stimulation DR: EC50.
As for `Cc1ncsc1Cn1c(/C=C/C(=O)O)cnc1CN1CCC(c2cccc3c2OC(C)(c2ccc(Cl)cc2F)O3)CC1` (stereo not shown) [Compound 189, (E)-3-(2-((4-(2-(4-chloro-2-fluorophenyl)-2-methylbenzo[d][1,3]dioxol-4-yl)piperidin-1-yl)methyl)-1-((4-methylthiazol-5-yl)methyl)-1H-imidazol-5-yl)acrylic acid], the EC50 came out at 0.022 nM.
For the molecule `Cc1ncoc1Cn1c(/C=C/C(=O)O)cnc1CN1CCC(c2cccc3c2OC(C)(c2ccc(Cl)cc2F)O3)CC1` (stereo not shown) [Compound 190, (E)-3-(2-((4-(2-(4-chloro-2-fluorophenyl)-2-methylbenzo[d][1,3]dioxol-4-yl)piperidin-1-yl)methyl)-1-((4-methyloxazol-5-yl)methyl)-1H-imidazol-5-yl)acrylic acid], the EC50 is 0.012 nM.
For `CC1(c2ccc(Cl)cc2F)Oc2cccc(C3CCN(Cc4ncc(/C=C/C(=O)O)n4CCC4CC4)CC3)c2O1` (stereo not shown) [Compound 191, (E)-3-(2-((4-(2-(4-chloro-2-fluorophenyl)-2-methylbenzo[d][1,3]dioxol-4-yl)piperidin-1-yl)methyl)-1-(2-cyclopropylethyl)-1H-imidazol-5-yl)acrylic acid], the EC50 came to 0.33 nM.
As for `CC1(c2ccc(Cl)cc2F)Oc2cccc(C3CCN(Cc4ncc(/C=C/C(=O)O)n4CC4(C#N)CC4)CC3)c2O1` (stereo not shown) [Compound 192, (E)-3-(2-((4-(2-(4-chloro-2-fluorophenyl)-2-methylbenzo[d][1,3]dioxol-4-yl)piperidin-1-yl)methyl)-1-((1-cyanocyclopropyl)methyl)-1H-imidazol-5-yl)acrylic acid], the EC50 was found to be 0.073 nM.
With `CC#CCn1c(/C=C/C(=O)O)cnc1CN1CCC(c2cccc3c2OC(C)(c2ccc(Cl)cc2F)O3)CC1` (stereo not shown) [Compound 193, (E)-3-(1-(but-2-yn-1-yl)-2-((4-(2-(4-chloro-2-fluorophenyl)-2-methylbenzo[d][1,3]dioxol-4-yl)piperidin-1-yl)methyl)-1H-imidazol-5-yl)acrylic acid] the figure was 0.11 nM.
With `CC1(c2ccc(Cl)cc2F)Oc2cccc(C3CCN(Cc4ncc(/C=C/C(=O)O)n4CC4COC4)CC3)c2O1` (stereo not shown) [Compound 194, (E)-3-(2-((4-(2-(4-chloro-2-fluorophenyl)-2-methylbenzo[d][1,3]dioxol-4-yl)piperidin-1-yl)methyl)-1-(oxetan-3-ylmethyl)-1H-imidazol-5-yl)acrylic acid], the EC50 is 0.064 nM.
As to `COCCCn1c(/C=C/C(=O)O)cnc1CN1CCC(c2cccc3c2OC(C)(c2ccc(Cl)cc2F)O3)CC1` (stereo not shown) [Compound 195, (E)-3-(2-((4-(2-(4-chloro-2-fluorophenyl)-2-methylbenzo[d][1,3]dioxol-4-yl)piperidin-1-yl)methyl)-1-(3-methoxypropyl)-1H-imidazol-5-yl)acrylic acid], the EC50 turned out to be 0.091 nM.
The same measure for `COC1(Cn2c(/C=C/C(=O)O)cnc2CN2CCC(c3cccc4c3OC(C)(c3ccc(Cl)cc3F)O4)CC2)CC1` (stereo not shown) [Compound 196, (E)-3-(2-((4-(2-(4-chloro-2-fluorophenyl)-2-methylbenzo[d][1,3]dioxol-4-yl)piperidin-1-yl)methyl)-1-((1-methoxycyclopropyl)methyl)-1H-imidazol-5-yl)acrylic acid]: 0.058 nM; for `CCOCCn1c(/C=C/C(=O)O)cnc1CN1CCC(c2cccc3c2OC(C)(c2ccc(Cl)cc2F)O3)CC1` (stereo not shown) [Compound 197, (E)-3-(2-((4-(2-(4-chloro-2-fluorophenyl)-2-methylbenzo[d][1,3]dioxol-4-yl)piperidin-1-yl)methyl)-1-(2-ethoxyethyl)-1H-imidazol-5-yl)acrylic acid]: 0.019 nM.
Consider `C[C@]1(c2ccc(Cl)cc2F)Oc2cccc(C3CCN(Cc4ncc(/C=C/C(=O)O)n4CCOCC(F)(F)F)CC3)c2O1` [Compound 198a, (S,E)-3-(2-((4-(2-(4-chloro-2-fluorophenyl)-2-methylbenzo[d][1,3]dioxol-4-yl)piperidin-1-yl)methyl)-1-(2-(2,2,2-trifluoroethoxy)ethyl)-1H-imidazol-5-yl)acrylic acid], for which the EC50 was 0.0095 nM.
For the molecule `Cc1ncoc1Cn1c(/C=C/C(=O)O)cnc1CN1CCC(c2cccc3c2OC[C@@H](c2ccc(Cl)cc2)O3)CC1` [Compound 199a, (R,E)-3-(2-((4-(2-(4-chlorophenyl)-2,3-dihydrobenzo [b][1,4]dioxin-5-yl)piperidin-1-yl)methyl)-1-((4-methyloxazol-5-yl)methyl)-1H-imidazol-5-yl)acrylic acid], the EC50 came to 1.6 nM.
On to `CC1(c2ccc(Cl)cc2F)Oc2cccc(C3CCN(Cc4ncc(/C=C/C(=O)O)n4CCN4CCOC4=O)CC3)c2O1` (stereo not shown) [Compound 200, (E)-3-(2-((4-(2-(4-chloro-2-fluorophenyl)-2-methylbenzo[d][1,3]dioxol-4-yl)piperidin-1-yl)methyl)-1-(2-(2-oxooxazolidin-3-yl)ethyl)-1H-imidazol-5-yl)acrylic acid], for which the EC50 was 0.22 nM.
In the case of `CC1(c2ccc(Cl)cc2F)Oc2cccc(C3CCN(Cc4ncc(/C=C/C(=O)O)n4CCOC4CC4)CC3)c2O1` (stereo not shown) [Compound 201, (E)-3-(2-((4-(2-(4-chloro-2-fluorophenyl)-2-methylbenzo[d][1,3]dioxol-4-yl)piperidin-1-yl)methyl)-1-(2-cyclopropoxyethyl)-1H-imidazol-5-yl)acrylic acid], the EC50 turned out to be 0.034 nM.
With `Cc1ncc(Cn2c(/C=C/C(=O)O)cnc2CN2CCC(c3cccc4c3OC(C)(c3ccc(Cl)cc3F)O4)CC2)o1` (stereo not shown) [Compound 202, (E)-3-(2-((4-(2-(4-chloro-2-fluorophenyl)-2-methylbenzo[d][1,3]dioxol-4-yl)piperidin-1-yl)methyl)-1-((2-methyloxazol-5-yl)methyl)-1H-imidazol-5-yl)acrylic acid] the figure was 0.26 nM.
Turning to `CCc1nocc1Cn1c(/C=C/C(=O)O)cnc1CN1CCC(c2cccc3c2OC(C)(c2ccc(Cl)cc2F)O3)CC1` (stereo not shown) [Compound 203, (E)-3-(2-((4-(2-(4-chloro-2-fluorophenyl)-2-methylbenzo[d][1,3]dioxol-4-yl)piperidin-1-yl)methyl)-1-((3-ethylisoxazol-4-yl)methyl)-1H-imidazol-5-yl)acrylic acid], the EC50 is 0.058 nM.
As for `Cc1nocc1Cn1c(/C=C/C(=O)O)cnc1CN1CCC(c2cccc3c2OC(C)(c2ccc(Cl)cc2F)O3)CC1` (stereo not shown) [Compound 204, (E)-3-(2-((4-(2-(4-chloro-2-fluorophenyl)-2-methylbenzo[d][1,3]dioxol-4-yl)piperidin-1-yl)methyl)-1-((3-methylisoxazol-4-yl)methyl)-1H-imidazol-5-yl)acrylic acid], the EC50 amounted to 0.012 nM.
Consider `O=C(O)/C=C/c1cnc(CN2CCC(c3cccc4c3OC[C@@H](c3ccc(Cl)cc3)O4)CC2)n1Cc1cnco1` [Compound 205a, (R,E)-3-(2-((4-(2-(4-chlorophenyl)-2,3-dihydrobenzo[b][1,4]dioxin-5-yl)piperidin-1-yl)methyl)-1-(oxazol-5-ylmethyl)-1H-imidazol-5-yl)acrylic acid], for which the EC50 stood at 0.26 nM.
For `Cn1cncc1Cn1c(/C=C/C(=O)O)cnc1CN1CCC(c2cccc3c2OC[C@@H](c2ccc(Cl)cc2)O3)CC1` [Compound 206a, (R,E)-3-(2-((4-(2-(4-chlorophenyl)-2,3-dihydrobenzo[b][1,4]dioxin-5-yl)piperidin-1-yl)methyl)-1-((1-methyl-1H-imidazol-5-yl)methyl)-1H-imidazol-5-yl)acrylic acid], the EC50 worked out at 0.19 nM.
As for `CCn1cncc1Cn1c(/C=C/C(=O)O)cnc1CN1CCC(c2cccc3c2OC[C@@H](c2ccc(Cl)cc2)O3)CC1` [Compound 207a, (R,E)-3-(2-((4-(2-(4-chlorophenyl)-2,3-dihydrobenzo [b][1,4]dioxin-5-yl)piperidin-1-yl)methyl)-1-((1-ethyl-1H-imidazol-5-yl)methyl)-1H-imidazol-5-yl)acrylic acid], the EC50 is 0.016 nM.
With `CCn1cncc1Cn1c(/C=C(\C)C(=O)O)cnc1CN1CCC(c2cccc3c2OC[C@@H](c2ccc(Cl)cc2)O3)CC1` [Compound 208a, (R,E)-3-(2-((4-(2-(4-chlorophenyl)-2,3-dihydrobenzo [b][1,4]dioxin-5-yl)piperidin-1-yl)methyl)-1-((1-ethyl-1H-imidazol-5-yl)methyl)-1H-imidazol-5-yl)-2-methylacrylic acid], the EC50 was 0.011 nM.
As for `O=C(O)/C=C/c1cnc(CN2CCC(c3cccc4c3OC[C@@H](c3ccc(Cl)cc3)O4)CC2)n1Cc1cccnc1` [Compound 209a, (R,E)-3-(2-((4-(2-(4-chlorophenyl)-2,3-dihydrobenzo[b][1,4]dioxin-5-yl)piperidin-1-yl)methyl)-1-(pyridin-3-ylmethyl)-1H-imidazol-5-yl)acrylic acid], the EC50 worked out at 0.54 nM.
`O=C(O)/C=C/c1cnc(CN2CCC(c3cccc4c3OC[C@@H](c3ccc(Cl)cc3)O4)CC2)n1Cc1ccccc1` [Compound 210a, (R,E)-3-(1-benzyl-2-((4-(2-(4-chlorophenyl)-2,3-dihydrobenzo[b][1,4]dioxin-5-yl)piperidin-1-yl)methyl)-1H-imidazol-5-yl)acrylic acid]: the concentration giving a half-maximal response (EC50) is 0.43 nM.
For `O=C(O)/C=C/c1cnc(CN2CCC(c3cccc(OCc4ccc(Cl)cc4F)n3)CC2)n1CC1CCC1` [Compound 211, (E)-3-(2-((4-(6-((4-chloro-2-fluorobenzyl)oxy)pyridin-2-yl)piperidin-1-yl)methyl)-1-(cyclobutylmethyl)-1H-imidazol-5-yl)acrylic acid], the EC50 is 0.54 nM.
For `CS(=O)(=O)CCn1c(/C=C/C(=O)O)cnc1CN1CCC(c2cccc(OCc3ccc(Cl)cc3F)n2)CC1` [Compound 212, (E)-3-(2-((4-(6-((4-chloro-2-fluorobenzyl)oxy)pyridin-2-yl)piperidin-1-yl)methyl)-1-(2-(methylsulfonyl)ethyl)-1H-imidazol-5-yl)acrylic acid], the EC50 came out at 6.4 nM.
`O=C(O)/C=C/c1cnc(CN2CCC(c3cccc(OCc4ccc(Cl)cc4F)n3)CC2)n1CC1CCCO1` (stereo not shown) [Compound 213, (E)-3-(2-((4-(6-((4-chloro-2-fluorobenzyl)oxy)pyridin-2-yl)piperidin-1-yl)methyl)-1-((tetrahydrofuran-2-yl)methyl)-1H-imidazol-5-yl)acrylic acid]: the EC50 worked out at 4.2 nM.

A word on the EC50: it is the concentration giving half of the maximal effect.
